≈ marks a conversion by molar mass, not a printed value.
What was measured:
[1] = format: physicochemical; conditions: pH 7
[2] = pH 7
physchem = conditions: pH 7

| Compound | [θ]222, Benign [1] | other results |
| --- | --- | --- |
| CC[C@H](C)[C@H](NC(=O)[C@H](CCC(N)=O)NC(=O)[C@H](CO)NC(=O)[C@@H](NC(=O)[C@H](C)NC(=O)[C@H](CCCCN)NC(=O)[C@H](CC(N)=O)NC(=O)[C@H](Cc1ccccc1)NC(=O)[C@H](CCC(N)=O)NC(=O)[C@H](CC(N)=O)NC(=O)[C@H](C)NC(=O)[C@@H](NC(=O)[C@H](CCC(N)=O)NC(=O)[C@H](CCCCN)NC(=O)[C@H](CCC(N)=O)NC(=O)[C@H](CC(N)=O)NC(=O)[C@H](CCC(=O)O)NC(=O)[C@H](Cc1ccc(O)cc1)NC(=O)[C@H](CC(C)C)NC(=O)[C@@H](NC(=O)[C@H](CC(N)=O)NC(=O)[C@H](CCC(N)=O)NC(=O)[C@@H](NC(=O)[C@@H](NC(=O)CNC(=O)[C@@H](NC(=O)CNC(=O)[C@H](CC(N)=O)NC(=O)[C@H](Cc1ccccc1)NC(=O)[C@H](CCCNC(=N)N)NC(=O)[C@H](Cc1ccc(O)cc1)NC(=O)[C@H](C)NC(=O)[C@H](CCSC)NC(=O)[C@H](CCC(N)=O)NC(=O)[C@H](CCSC)NC(C)=O)[C@@H](C)CC)C(C)C)[C@@H](C)O)C(C)C)[C@@H](C)CC)[C@@H](C)CC)C(N)=O [HR-N5] | −4,300 degrees · cm^2 · dmol^−1 | No. Helical Residues, 50% TFE [1]: 24; [θ]222, 50% TFE [1]: −24,200 degrees · cm^2 · dmol^−1; solubility (in words) [2]: largely insoluble; solubility (physchem): 15 µM (≈ 61.5 µg/mL) |
| CC[C@H](C)[C@H](NC(=O)CNC(=O)[C@H](CC(N)=O)NC(=O)[C@H](Cc1ccccc1)NC(C)=O)C(=O)NCC(=O)N[C@H](C(=O)N[C@H](C(=O)N[C@@H](CCC(N)=O)C(=O)N[C@@H](CC(N)=O)C(=O)N[C@H](C(=O)N[C@@H](CC(C)C)C(=O)N[C@@H](Cc1ccc(O)cc1)C(=O)N[C@@H](CCC(=O)O)C(=O)N[C@@H](CC(N)=O)C(=O)N[C@@H](CCC(N)=O)C(=O)N[C@@H](CCCCN)C(=O)N[C@@H](CCC(N)=O)C(=O)N[C@H](C(=O)N[C@@H](C)C(=O)N[C@@H](CC(N)=O)C(=O)N[C@@H](CCC(N)=O)C(=O)N[C@@H](Cc1ccccc1)C(=O)N[C@@H](CC(N)=O)C(=O)N[C@@H](CCCCN)C(=O)N[C@@H](C)C(=O)N[C@H](C(=O)N[C@@H](CO)C(=O)N[C@@H](CCC(N)=O)C(=O)N[C@H](C(=O)N[C@@H](CCC(N)=O)C(=O)N[C@@H](CCC(=O)O)C(=O)N[C@@H](CO)C(=O)N[C@@H](CC(C)C)C(=O)N[C@H](C(=O)N[C@H](C(N)=O)[C@@H](C)O)[C@@H](C)O)[C@@H](C)CC)[C@@H](C)CC)[C@@H](C)CC)C(C)C)[C@@H](C)O)C(C)C [HR-N6] | −3,300 degrees · cm^2 · dmol^−1 |  |
| CC[C@H](C)[C@H](NC(=O)[C@H](C)NC(=O)[C@H](CCCCN)NC(=O)[C@H](CC(N)=O)NC(=O)[C@H](Cc1ccccc1)NC(=O)[C@H](CCC(N)=O)NC(=O)[C@H](CC(N)=O)NC(=O)[C@H](C)NC(=O)[C@@H](NC(=O)[C@H](CCC(N)=O)NC(=O)[C@H](CCCCN)NC(=O)[C@H](CCC(N)=O)NC(=O)[C@H](CC(N)=O)NC(=O)[C@H](CCC(=O)O)NC(=O)[C@H](Cc1ccc(O)cc1)NC(=O)[C@H](CC(C)C)NC(=O)[C@@H](NC(=O)[C@H](CC(N)=O)NC(=O)[C@H](CCC(N)=O)NC(C)=O)C(C)C)[C@@H](C)CC)C(=O)N[C@@H](CO)C(=O)N[C@@H](CCC(N)=O)C(=O)N[C@H](C(=O)N[C@@H](CCC(N)=O)C(=O)N[C@@H](CCC(=O)O)C(=O)N[C@@H](CO)C(=O)N[C@@H](CC(C)C)C(=O)N[C@H](C(=O)N[C@H](C(=O)N[C@H](C(=O)N[C@@H](CO)C(=O)N[C@H](C(=O)N[C@@H](C)C(=O)N[C@@H](CC(C)C)C(=O)NCC(=O)N[C@@H](CCCCN)C(N)=O)[C@@H](C)O)[C@@H](C)O)[C@@H](C)O)[C@@H](C)O)[C@@H](C)CC [HR-N7] | −2,800 degrees · cm^2 · dmol^−1 |  |
| CC[C@H](C)[C@H](NC(=O)[C@H](C)NC(=O)[C@H](CCCCN)NC(=O)[C@H](CC(N)=O)NC(=O)[C@H](Cc1ccccc1)NC(=O)[C@H](CCC(N)=O)NC(=O)[C@H](CC(N)=O)NC(=O)[C@H](C)NC(=O)[C@@H](NC(=O)[C@H](CCC(N)=O)NC(=O)[C@H](CCCCN)NC(=O)[C@H](CCC(N)=O)NC(C)=O)[C@@H](C)CC)C(=O)N[C@@H](CO)C(=O)N[C@@H](CCC(N)=O)C(=O)N[C@H](C(=O)N[C@@H](CCC(N)=O)C(=O)N[C@@H](CCC(=O)O)C(=O)N[C@@H](CO)C(=O)N[C@@H](CC(C)C)C(=O)N[C@H](C(=O)N[C@H](C(=O)N[C@H](C(=O)N[C@@H](CO)C(=O)N[C@H](C(=O)N[C@@H](C)C(=O)N[C@@H](CC(C)C)C(=O)NCC(=O)N[C@@H](CCCCN)C(=O)N[C@@H](CC(C)C)C(=O)N[C@@H](CCC(N)=O)C(=O)N[C@@H](CC(=O)O)C(=O)N[C@H](C(=O)N[C@H](C(=O)N[C@@H](CC(N)=O)C(=O)N[C@@H](CCC(N)=O)C(N)=O)C(C)C)C(C)C)[C@@H](C)O)[C@@H](C)O)[C@@H](C)O)[C@@H](C)O)[C@@H](C)CC [HR-N8] | −2,500 degrees · cm^2 · dmol^−1 |  |
| CC[C@H](C)[C@H](NC(=O)[C@H](C)NC(=O)[C@H](CCCCN)NC(=O)[C@H](CC(N)=O)NC(=O)[C@H](Cc1ccccc1)NC(C)=O)C(=O)N[C@@H](CO)C(=O)N[C@@H](CCC(N)=O)C(=O)N[C@H](C(=O)N[C@@H](CCC(N)=O)C(=O)N[C@@H](CCC(=O)O)C(=O)N[C@@H](CO)C(=O)N[C@@H](CC(C)C)C(=O)N[C@H](C(=O)N[C@H](C(=O)N[C@H](C(=O)N[C@@H](CO)C(=O)N[C@H](C(=O)N[C@@H](C)C(=O)N[C@@H](CC(C)C)C(=O)NCC(=O)N[C@@H](CCCCN)C(=O)N[C@@H](CC(C)C)C(=O)N[C@@H](CCC(N)=O)C(=O)N[C@@H](CC(=O)O)C(=O)N[C@H](C(=O)N[C@H](C(=O)N[C@@H](CC(N)=O)C(=O)N[C@@H](CCC(N)=O)C(=O)N[C@@H](CC(N)=O)C(=O)N[C@@H](C)C(=O)N[C@@H](CCC(N)=O)C(=O)N[C@@H](C)C(=O)N[C@@H](CC(C)C)C(=O)N[C@@H](CC(N)=O)C(=O)N[C@H](C(N)=O)[C@@H](C)O)C(C)C)C(C)C)[C@@H](C)O)[C@@H](C)O)[C@@H](C)O)[C@@H](C)O)[C@@H](C)CC [HR-N9] | −2,800 degrees · cm^2 · dmol^−1 |  |
| CC[C@H](C)[C@H](NC(C)=O)C(=O)N[C@@H](CCC(N)=O)C(=O)N[C@@H](CCC(=O)O)C(=O)N[C@@H](CO)C(=O)N[C@@H](CC(C)C)C(=O)N[C@H](C(=O)N[C@H](C(=O)N[C@H](C(=O)N[C@@H](CO)C(=O)N[C@H](C(=O)N[C@@H](C)C(=O)N[C@@H](CC(C)C)C(=O)NCC(=O)N[C@@H](CCCCN)C(=O)N[C@@H](CC(C)C)C(=O)N[C@@H](CCC(N)=O)C(=O)N[C@@H](CC(=O)O)C(=O)N[C@H](C(=O)N[C@H](C(=O)N[C@@H](CC(N)=O)C(=O)N[C@@H](CCC(N)=O)C(=O)N[C@@H](CC(N)=O)C(=O)N[C@@H](C)C(=O)N[C@@H](CCC(N)=O)C(=O)N[C@@H](C)C(=O)N[C@@H](CC(C)C)C(=O)N[C@@H](CC(N)=O)C(=O)N[C@H](C(=O)N[C@@H](CC(C)C)C(=O)N[C@H](C(=O)N[C@@H](CCCCN)C(=O)N[C@@H](CCC(N)=O)C(=O)N[C@@H](CC(C)C)C(=O)N[C@@H](CO)C(=O)N[C@@H](CO)C(N)=O)C(C)C)[C@@H](C)O)C(C)C)C(C)C)[C@@H](C)O)[C@@H](C)O)[C@@H](C)O)[C@@H](C)O [HR-N10] | −3,600 degrees · cm^2 · dmol^−1 |  |
| CC[C@H](C)[C@H](NC(=O)[C@H](C)NC(=O)CNC(=O)[C@H](Cc1ccccc1)NC(=O)[C@H](CC(N)=O)NC(=O)[C@H](CO)NC(=O)[C@H](CO)NC(=O)[C@H](CC(C)C)NC(=O)[C@H](CCC(N)=O)NC(=O)[C@H](CCCCN)NC(=O)[C@@H](NC(=O)[C@H](CC(C)C)NC(=O)[C@@H](NC(=O)[C@H](CC(N)=O)NC(=O)[C@H](CC(C)C)NC(=O)[C@H](C)NC(=O)[C@H](CCC(N)=O)NC(=O)[C@H](C)NC(=O)[C@H](CC(N)=O)NC(=O)[C@H](CCC(N)=O)NC(=O)[C@H](CC(N)=O)NC(=O)[C@@H](NC(=O)[C@@H](NC(=O)[C@H](CC(=O)O)NC(=O)[C@H](CCC(N)=O)NC(=O)[C@H](CC(C)C)NC(=O)[C@H](CCCCN)NC(=O)CNC(=O)[C@H](CC(C)C)NC(=O)[C@H](C)NC(=O)[C@@H](NC(=O)[C@H](CO)NC(=O)[C@@H](NC(C)=O)[C@@H](C)O)[C@@H](C)O)C(C)C)C(C)C)[C@@H](C)O)C(C)C)C(=O)N[C@@H](CO)C(=O)N[C@@H](CO)C(N)=O [HR-N11] | −3,200 degrees · cm^2 · dmol^−1 |  |

— patent US20080027006A1 (priority 2004, published 2008)
